PMC6920844, “Mechanism of Action and Interactions between Thyroid Peroxidase and Lipoxygenase Inhibitors Derived from Plant Sources” (Biomolecules, 2019)
Marks after values point to notes of the source that are not given here.

Experiments:
thyroid peroxidase (TPO) = molecular target: T1, thyroid peroxidase (TPO) (Sus scrofa, UniProt P09933); experiment: Thyroid peroxidase inhibitory assay (guaiacol assay, Lineweaver–Burk plot); details: for Vmax (TPO) / Mode of Inhibition (TPO) / EFC50 (effective concentration inhibiting TPO in 50%) / Ki (TPO): pure polyphenol solutions; for Mode of Inhibition (TPO): Lineweaver–Burk
T1 sequence (P09933 15-926): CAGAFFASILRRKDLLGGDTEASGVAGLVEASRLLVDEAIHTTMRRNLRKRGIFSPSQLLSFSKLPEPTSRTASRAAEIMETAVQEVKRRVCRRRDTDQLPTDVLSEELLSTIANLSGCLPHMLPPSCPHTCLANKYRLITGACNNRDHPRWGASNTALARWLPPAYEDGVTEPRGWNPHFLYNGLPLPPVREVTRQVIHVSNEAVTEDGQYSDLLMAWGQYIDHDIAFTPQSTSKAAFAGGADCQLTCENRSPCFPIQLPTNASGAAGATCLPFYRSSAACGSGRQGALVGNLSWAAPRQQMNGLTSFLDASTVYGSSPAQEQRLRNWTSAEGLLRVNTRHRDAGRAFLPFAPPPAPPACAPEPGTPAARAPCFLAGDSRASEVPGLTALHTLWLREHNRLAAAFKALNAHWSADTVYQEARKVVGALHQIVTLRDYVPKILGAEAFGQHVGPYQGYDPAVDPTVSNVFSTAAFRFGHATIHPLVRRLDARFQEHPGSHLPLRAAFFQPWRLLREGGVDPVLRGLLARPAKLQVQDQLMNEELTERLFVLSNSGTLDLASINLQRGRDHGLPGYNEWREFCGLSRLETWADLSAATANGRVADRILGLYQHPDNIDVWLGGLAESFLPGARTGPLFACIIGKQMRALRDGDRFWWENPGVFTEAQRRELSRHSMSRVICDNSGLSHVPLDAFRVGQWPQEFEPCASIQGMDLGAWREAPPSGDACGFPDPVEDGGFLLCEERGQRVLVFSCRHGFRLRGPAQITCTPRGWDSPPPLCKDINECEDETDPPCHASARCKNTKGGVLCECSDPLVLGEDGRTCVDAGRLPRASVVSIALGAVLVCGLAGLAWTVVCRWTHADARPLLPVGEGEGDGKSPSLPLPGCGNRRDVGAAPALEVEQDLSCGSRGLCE

[1] = ABTS radical scavenging activity (in vitro antioxidant capacity assay)
[2] = pure polyphenols, values in text

IC50 (thyroid peroxidase (TPO))	Ki (thyroid peroxidase (TPO))	Vmax (TPO) (thyroid peroxidase (TPO))	Mode of Inhibition (TPO) (thyroid peroxidase (TPO))	ABTS radical scavenging ability IC50 ([1]; pure chemical standards)	EFC50 (effective concentration inhibiting TPO in 50%) (thyroid peroxidase (TPO))	Ki (TPO) (thyroid peroxidase (TPO))	ABTS radical scavenging ability IC50 [1, 2]	Structure (SMILES)
215 µM	653 µM	192.31 ± 8.34 ^b ΔAU/min	Competitive	0.337 ± 0.002 ^b mg/mL				O=c1c(O)c(-c2ccc(O)cc2)oc2cc(O)cc(O)c12 [Kaempferol, kaempferol]
		149.25 ± 6.26 ^a ΔAU/min	Competitive		25.42 ± 1.13 ^a µg/mL	45.92 ± 3.22 ^b µg/mL	84.33 µg/mL	COc1cc(C=CC(=O)O)cc(OC)c1O (stereo in doubt) [Sinapinic acid, sinapinic acid]
430 µM	1250 µM	149.25 ± 5.12 ^a ΔAU/min	Uncompetitive	0.406 ± 0.003 ^c mg/mL			405.93 µg/mL	O=c1cc(-c2ccc(O)cc2)oc2cc(O)cc(O)c12 [Apigenin, apigenin]
		144.93 ± 4.33 ^a ΔAU/min	Competitive	0.078 ± 0.008 ^a mg/mL	29.76 ± 2.05 ^b µg/mL	33.42 ± 1.35 ^a µg/mL	78.37 µg/mL	O.Oc1cc(O)c2c(c1)O[C@H](c1ccc(O)c(O)c1)[C@@H](O)C2 [Catechin, catechin]
